What was measured:
[1] = target: T1, rat intestinal fatty acid binding protein (rI-FABP, SEQ ID NO: 3) variant L24P19C7, 14R 18L 38V 60R 73F 106C 115R 117D, SEQ ID NO: 36 (Rattus norvegicus, UniProt P02693, A74F/L39V/L73A/M19L/Q116R/R107C/V61R/Y118D/Y15R); assay: bilirubin binding to L24P19C7 probe (fluorescence titration)
T1 construct: made in house
Description: Also described are analytical/mathematical methods for calibrating and using the bilirubin probes. Bilirubin probes are calibrated to determine their binding affinity for bilirubin (dissociation constant Kd) under conditions, such as temperature, pH and solution composition, that correspond to samples in which it is desired to know the unbound bilirubin concentration. Binding isotherms are performed in aqueous buffer by measuring the change in fluorescence of the bilirubin probes in response to increasing bilirubin concentrations (“titration data”). The set of fluorescence responses at each bilirubin concentration are fitted with an appropriate equation (“calibration equation”) that correctly describes the fluorescence response as a function of the bilirubin concentration, the probe concentration, specific spectroscopic characteristics, and the Kd. […] Bilirubin probes are derived from a rat intestinal fatty acid binding protein (rI-FABP) as described previously for unbound FFA (FFAu) probes in U.S. Pat. No. 7,601,510, U.S. publication 2010/0298162 and [Huber A H, Zhu […] and […]. Fluorescence Sensor for the Quantification of Unbound Bilirubin Concentrations. Clin Chem 58: 869-876, 2012; Huber […], Zhu B and […]. Fatty acid-specific fluorescent probes and their use in resolving mixtures of different unbound free fatty acids in equilibrium with albumin. […]

[2] = target: rI-FABP (SEQ ID NO: 3) variant L2P14 F7, 18G 31M 72A (Rattus norvegicus, UniProt P02693, G32M/L73A/M19G); assay: bilirubin binding to L2P14F7 probe; conditions: Table 6, acrylodan
Description: (§1) Also described are analytical/mathematical methods for calibrating and using the bilirubin probes. Bilirubin probes are calibrated to determine their binding affinity for bilirubin (dissociation constant Kd) under conditions, such as temperature, pH and solution composition, that correspond to samples in which it is desired to know the unbound bilirubin concentration. Binding isotherms are performed in aqueous buffer by measuring the change in fluorescence of the bilirubin probes in response to increasing bilirubin concentrations (“titration data”). The set of fluorescence responses at each bilirubin concentration are fitted with an appropriate equation (“calibration equation”) that correctly describes the fluorescence response as a function of the bilirubin concentration, the probe concentration, specific spectroscopic characteristics, and the Kd.

[3] = target: T2, rI-FABP (SEQ ID NO: 3) variant L2P14 F7 - K27C, 18G 27C 31M 72A (Rattus norvegicus, UniProt P02693, G32M/K28C/L73A/M19G); assay: bilirubin binding to L2P14F7-K27C probe; conditions: Table 5, acrylodan
T2 construct: made in house
Description: as §1

[4] = target: T3, rI-FABP (SEQ ID NO: 3) variant L2P14 F7-KR14 - K27C, KR14-18G 27C 31M 72A (Rattus norvegicus, UniProt P02693, G32M/K101R/K126R/K17R/K21R/K28C/K30R/K38R/K47R/K51R/K89R/K8R/K93R/K95R/L73A/M19G); assay: bilirubin binding to L2P14F7-KR14-K27C probe; conditions: Table 5, acrylodan
T3 construct: made in house
Description: as §1

[5] = target: T4, rI-FABP (SEQ ID NO: 3) variant L2P14F7 MGI KR14 K27K, MGI - KR14 - 18G 27K 31M 72A (Rattus norvegicus, UniProt P02693, G32M/K101R/K126R/K17R/K21R/K30R/K38R/K47R/K51R/K89R/K8R/K93R/K95R/L73A/M19G); assay: bilirubin binding to L2P14F7 MGI KR14 K27K probe; conditions: Table 6, acrylodan
T4 construct: made in house
Description: as §1

[6] = target: T5, rI-FABP (SEQ ID NO: 3) variant L24P19 C7 K27K 26C, 14R 18L 26C 38V 60R 73F 106C 115R 117D (Rattus norvegicus, UniProt P02693, A74F/L39V/L73A/M19L/Q116R/R107C/V27C/V61R/Y118D/Y15R); assay: bilirubin binding to L24P19C7 26C probe; conditions: Table 5, acrylodan
T5 construct: made in house
Description: as §1
. […] The optimal probe performance was obtained with cysteine at positions 25 or 26.

[7] = target: T6, rI-FABP (SEQ ID NO: 3) variant L24P19 C7, 14R 18L 27A 38V 60R 73F 106A 115R 117D (Rattus norvegicus, UniProt P02693, A74F/K28A/L39V/L73A/M19L/Q116R/R107A/V61R/Y118D/Y15R); assay: bilirubin binding to L24P19 C7 as listed in Table 6; conditions: Table 6, acrylodan
T6 construct: Residues 27 and 106 disputed: row prints 27A 106A
Description: as §1

[8] = target: T7, rI-FABP (SEQ ID NO: 3) variant BL2P2 B6, 14R 18L 31C 38V 60R 73V 106A 115R 117D (Rattus norvegicus, UniProt P02693, A74V/G32C/L39V/L73A/M19L/Q116R/R107A/V61R/Y118D/Y15R); assay: bilirubin binding to BL2P2B6 probe; conditions: Table 5, acrylodan
T7 construct: made in house
Description: as §1

[9] = target: T8, rI-FABP (SEQ ID NO: 3) variant BL22P1 B11 - 29C, MGI - KR14 - 14R 18L 27A 29C 38V 60R 73F 106L 115R 117D (Rattus norvegicus, UniProt P02693, A74F/K101R/K126R/K17R/K21R/K28A/K30C/K38R/K47R/K51R/K89R/K8R/K93R/K95R/L39V/L73A/M19L/Q116R/R107L/V61R/Y118D/Y15R); assay type: binding; conditions: Table 5, Alexa Fluor 680 C2-maleimide
T8 construct: 6xHis (C); made in house
Description: as §1

[10] = target: T9, rI-FABP (SEQ ID NO: 3) variant BL22P1 B11 - 74C, MGI - KR14 - 14R 18L 27A 38V 60R 73F 74C 106L 115R 117D (Rattus norvegicus, UniProt P02693, A74F/D75C/K101R/K126R/K17R/K21R/K28A/K30R/K38R/K47R/K51R/K89R/K8R/K93R/K95R/L39V/L73A/M19L/Q116R/R107L/V61R/Y118D/Y15R); assay type: binding; conditions: Table 5, Alexa Fluor 680 C2-maleimide
T9 construct: 6xHis (C); made in house
Description: as §1

T1 sequence (P02693 with tags, fused parts or gaps Y15R/M19L/L39V/V61R/L73A/A74F/R107C/Q116R/Y118D): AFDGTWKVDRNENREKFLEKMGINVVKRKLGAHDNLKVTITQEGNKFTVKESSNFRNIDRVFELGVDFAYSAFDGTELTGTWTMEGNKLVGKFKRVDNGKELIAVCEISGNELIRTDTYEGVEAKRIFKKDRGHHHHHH
T6 sequence (P02693 with tags, fused parts or gaps Y15R/M19L/K28A/L39V/V61R/L73A/A74F/R107A/Q116R/Y118D): as the sequence (P02693 with tags, fused parts or gaps Y15R/M19L/L39V/V61R/L73A/A74F/R107C/Q116R/Y118D) above, with K27A, C106A counted along it
T9 sequence (P02693 with tags, fused parts or gaps with the stated changes): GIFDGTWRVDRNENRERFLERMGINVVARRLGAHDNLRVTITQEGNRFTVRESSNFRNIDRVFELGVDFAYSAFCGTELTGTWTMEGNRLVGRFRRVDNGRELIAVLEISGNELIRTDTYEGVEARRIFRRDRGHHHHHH
T5 sequence (P02693 with tags, fused parts or gaps Y15R/M19L/V27C/L39V/V61R/L73A/A74F/R107C/Q116R/Y118D): as the sequence (P02693 with tags, fused parts or gaps Y15R/M19L/L39V/V61R/L73A/A74F/R107C/Q116R/Y118D) above, with V26C counted along it
T3 sequence (P02693 with tags, fused parts or gaps with the stated changes): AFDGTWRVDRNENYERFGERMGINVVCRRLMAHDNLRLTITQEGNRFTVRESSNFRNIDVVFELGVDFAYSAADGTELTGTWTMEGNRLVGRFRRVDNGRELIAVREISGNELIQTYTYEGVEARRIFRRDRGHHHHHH
T8 sequence (P02693 with tags, fused parts or gaps with the stated changes): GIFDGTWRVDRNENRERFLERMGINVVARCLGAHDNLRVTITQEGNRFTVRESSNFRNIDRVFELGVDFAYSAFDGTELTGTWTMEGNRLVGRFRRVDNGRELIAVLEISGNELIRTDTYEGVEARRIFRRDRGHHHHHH
Sequence of rI-FABP (SEQ ID NO: 3) variant L2P14 F7, 18G 31M 72A (P02693 with tags, fused parts or gaps M19G/G32M/L73A): as the sequence (P02693 with tags, fused parts or gaps Y15R/M19L/L39V/V61R/L73A/A74F/R107C/Q116R/Y118D) above, with R14Y, L18G, G31M, V38L, R60V, F73A, C106R, R115Q, D117Y counted along it
T2 sequence (P02693 with tags, fused parts or gaps M19G/K28C/G32M/L73A): as the sequence (P02693 with tags, fused parts or gaps Y15R/M19L/L39V/V61R/L73A/A74F/R107C/Q116R/Y118D) above, with R14Y, L18G, K27C, G31M, V38L, R60V, F73A, C106R, R115Q, D117Y counted along it
T7 sequence (P02693 with tags, fused parts or gaps Y15R/M19L/G32C/L39V/V61R/L73A/A74V/R107A/Q116R/Y118D): as the sequence (P02693 with tags, fused parts or gaps Y15R/M19L/L39V/V61R/L73A/A74F/R107C/Q116R/Y118D) above, with G31C, F73V, C106A counted along it
T4 sequence (P02693 with tags, fused parts or gaps with the stated changes): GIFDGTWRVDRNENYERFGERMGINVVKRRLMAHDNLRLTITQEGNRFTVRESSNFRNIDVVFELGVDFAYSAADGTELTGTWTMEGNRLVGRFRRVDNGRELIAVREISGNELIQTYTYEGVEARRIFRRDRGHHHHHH

C=CC1=C(C)/C(=C/c2[nH]c(Cc3[nH]c(/C=C4\NC(=O)C(C)=C4C=C)c(C)c3CCC(=O)O)c(CCC(=O)O)c2C)NC1=O [bilirubin]
Kd ([1]; 22° C., aqueous bilirubin, acrylodan label): 22 nM
Kd ([1]; Table 5, acrylodan): 35 nM
Kd [2]: 69 nM
Kd [3]: 250 nM
Kd [4]: 530 nM
Kd [5]: 84 nM
Kd [6]: 19 nM
Kd [7]: 33 nM
Kd [8]: 137 nM
Kd [9]: 118 nM
Kd [10]: 160 nM

Reference: patent US10295551B2, “Development and use of fluorescent probes of unbound bilirubin” (Alan Marc Kleinfeld, priority 2011, dated 2019)
